Reference: patent US11453660B2, “Androgen receptor and glucocorticoid receptor modulators” (ONCOSTELLAE, S.L., priority 2017, dated 2022)
Counter-ions that a name gives are not always drawn.

Molecular target: T1, Rat Androgen Receptor (Rattus norvegicus, UniProt P15207)
T1 construct: purchased Life Technologies A15880
T1 sequence (P15207 646-902 limits assumed): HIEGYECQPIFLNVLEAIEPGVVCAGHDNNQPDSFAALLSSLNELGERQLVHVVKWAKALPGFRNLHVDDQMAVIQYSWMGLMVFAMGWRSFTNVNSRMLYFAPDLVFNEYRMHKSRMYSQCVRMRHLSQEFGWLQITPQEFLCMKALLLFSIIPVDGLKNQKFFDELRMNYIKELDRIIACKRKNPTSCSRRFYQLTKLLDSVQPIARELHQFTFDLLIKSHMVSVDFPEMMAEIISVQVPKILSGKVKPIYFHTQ
Test: Rat Androgen Receptor Binding (polarscreen AR competitor assay, fluorescence polarization)
Conditions: displacement of Fluormone AL Green, 4 hours at RT, read-out: AR rat-fluorimetric
Description: Pharmacological Activity Rat Androgen Receptor Binding
The assay was carried out following the instructions of polarscreen AR competitor assay green kit (Life Technologies, Cat #.: A15880). Briefly, the test is based on measuring the changes of fluorescence polarization shown by the Fluormone AL Green. Thus, when the Fluormone is bound to the receptor, a fluorescence polarization is observed that diminishes when a ligand competes for the receptor binding site and the Fluormone gets displaced.
The inhibition values for each of the compounds are measured in duplicate at 1 and 10 μM and the plate is incubated for 4 hours at RT. Fluorescence polarization is the measured in a Tecan Infinite M1000 Pro reader (λexc=485 nm, λem=535 nm). In order to obtain a dose-response curve and calculate the potency of inhibition (expressed as IC50) for AR, a series of 1:10 dilutions in test in 1× buffer from 10 μM to 0.1 nM for each compound was carried out.

Row | Structure (SMILES) | IC50 [µM]
1 | CC(=O)C1=C(C)NC(C)=C(C(=O)OCC2CCCC2)C1c1csc2ccccc12 (stereo not drawn) [Example C23, Cyclopentylmethyl 5-acetyl-4-(benzo[b]thiophen-3-yl)-2,6-dimethyl-1,4-dihydropyridine-3-carboxylate] | < 0.1
2 | CC(=O)C1=C(C)NC(C)=C(C(=O)OCC2CC2)C1c1csc2ccc(F)cc12 (stereo not drawn) [Example C21, Cyclopropylmethyl 5-acetyl-4-(5-fluorobenzo[b]thiophen-3-yl)-2,6-dimethyl-1,4-dihydropyridine-3-carboxylate] | < 0.1
3 | COC(=O)C1=C(C)NC(C)=C(C(C)=O)C1c1csc2ccc(F)cc12 (stereo not drawn) [Example J11, Methyl 5-acetyl-4-(5-fluorobenzo[b]thiophen-3-yl)-2,6-dimethyl-1,4-dihydropyridine-3-carboxylate] | < 0.1
4 | CC(=O)C1=C(C)NC(C)=C(C(=O)OC2CCOCC2)C1c1csc2ccccc12 (stereo not drawn) [Example C1, Tetrahydro-2H-pyran-4-yl 5-acetyl-4-(benzo[b]thiophen-3-yl)-2,6-dimethyl-1,4-dihydropyridine-3-carboxylate] | 0.1 to 1
5 | COC(=O)C1=C(N)NC(C)=C(C(C)=O)C1c1csc2ccccc12 (stereo not drawn) [Example K2, Methyl 5-acetyl-2-amino-4-(benzo[b]thiophen-3-yl)-6-methyl-1,4-dihydropyridine-3-carboxylate trifluoromethanesulfonate] | ≥ 1
6 | CC(=O)C1=C(C)NC(C)=C(C(C)=O)C1c1csc2ccncc12 [Example H13, 1,1′-(2,6-Dimethyl-4-(thieno[3,2-c]pyridin-3-yl)-1,4-dihydropyridine-3,5-diyl)bis(ethan-1-one)] | ≥ 1
7 | CC(=O)C1=C(C)NC(C)=C(C(C)=O)C1c1csc2ccc(NCc3ccccc3)cc12 [Example H6, 1,1′-(4-(5-(benzylamino)benzo[b]thiophen-3-yl)-2,6-dimethyl-1,4-dihydropyridine-3,5-diyl)bis(ethan-1-one)] | ≥ 1
8 | CC(=O)C1=C(C)NC(C)=C(C(C)=O)C1c1csc2ccc(C(=O)N3CCN(C)CC3)cc12 [Example H11, 1,1′-(2,6-Dimethyl-4-(5-(4-methylpiperazine-1-carbonyl)benzo[b]thiophen-3-yl)-1,4-dihydropyridine-3,5-diyl)bis(ethan-1-one)] | ≥ 1
9 | CC(=O)C1=C(C)NC(C)=C(C(=O)OCC(F)(F)F)C1c1csc2ccccc12 (stereo not drawn) [Example A10, 2,2,2-trifluoroethyl 5-acetyl-4-(benzo[b]thiophen-3-yl)-2,6-dimethyl-1,4-dihydropyridine-3-carboxylate] | < 0.1
10 | COC(=O)C1=C(C)NC(C)=C(C(C)=O)C1c1csc2ccc(Br)cc12 (stereo not drawn) [Example J12, Methyl 5-acetyl-4-(5-bromobenzo[b]thiophen-3-yl)-2,6-dimethyl-1,4-dihydropyridine-3-carboxylate] | < 0.1
11 | CC(=O)C1=C(C)NC(C)=C(C(=O)OC2CCC2)C1c1csc2ccccc12 (stereo not drawn) [Example C28, Cyclobutyl 5-acetyl-4-(benzo[b]thiophen-3-yl)-2,6-dimethyl-1,4-dihydropyridine-3-carboxylate] | 0.1 to 1
12 | CC(=O)C1=C(C2CC2)NC(C2CC2)=C(C(C)=O)C1c1csc2ccccc12 [Example G4, 1,1′-(4-(Benzo[b]thiophen-3-yl)-2,6-dicyclopropyl-1,4-dihydropyridine-3,5-diyl)diethanone] | ≥ 1
13 | COC(=O)C1=C(N)NC(C)=C(C(C)=O)C1c1csc2ccc(F)cc12 (stereo not drawn) [Example D3, Methyl 5-acetyl-2-amino-4-(5-fluorobenzo[b]thiophen-3-yl)-6-methyl-1,4-dihydropyridine-3-carboxylate] | < 0.1
14 | CC(=O)C1=C(C)NC(C)=C(C(C)=O)C1c1csc2cc(O)ccc12 [Example G2, 1,1′-(4-(6-hydroxybenzo[b]thiophen-3-yl)-2,6-dimethyl-1,4-dihydropyridine-3,5-diyl)bis(ethan-1-one)] | ≥ 1
15 | COC(=O)C1=C(C(F)(F)F)NC(C)=C(C(C)=O)C1c1csc2ccc(F)cc12 (stereo not drawn) [Example C29, Methyl 5-acetyl-4-(5-fluorobenzo[b]thiophen-3-yl)-6-methyl-2-(trifluoromethyl)-1,4-dihydropyridine-3-carboxylate] | < 0.1
16 | COC(=O)C1=C(C)NC(C)=C(C(C)=O)C1c1csc2ccc(C(=O)N3CCOCC3)cc12 (stereo not drawn) [Example J18, Methyl 5-acetyl-2,6-dimethyl-4-(5-(morpholine-4-carbonyl)benzo[b]thiophen-3-yl)-1,4-dihydropyridine-3-carboxylate] | ≥ 1
17 | COC(=O)C1=C(C)NC(C)=C(C(C)=O)C1c1csc2ccccc12 (single isomer, unassigned) [Example A3, Methyl 5-acetyl-4-(benzo[b]thiophen-3-yl)-2,6-dimethyl-1,4-dihydro-pyridine-3-carboxylate] | < 0.1

Row | Structure (SMILES) | IC50 [µM]
18 | COC(=O)C1=C(C)NC(C)=C(C(C)=O)C1c1csc2ccc(C(=O)NC3CC3)cc12 (stereo not drawn) [Example J15, Methyl 5-acetyl-4-(5-(cyclopropylcarbamoyl)benzo[b]thiophen-3-yl)-2,6-dimethyl-1,4-dihydropyridine-3-carboxylate] | ≥ 1
19 | CC(=O)C1=C(C)NC(C)=C(C(C)=O)C1c1csc2ccc(C(=O)O)cc12 [Example H8, 3-(3,5-diacetyl-2,6-dimethyl-1,4-dihydropyridin-4-yl)benzo[b]thiophene-5-carboxylic acid] | ≥ 1
20 | COC(=O)C1=C(N)NC(C)=C(C(C)=O)C1c1csc2ccccc12 (stereo not drawn) [Example K1, Methyl 5-acetyl-2-amino-4-(benzo[b]thiophen-3-yl)-6-methyl-1,4-dihydropyridine-3-carboxylate hydrochloride] | 0.1 to 1
21 | CC(=O)C1=C(C)NC(C2CC2)=C(C(C)=O)C1c1csc2ccccc12 (stereo not drawn) [Example J6, 1,1′-(4-(benzo[b]thiophen-3-yl)-2-cyclopropyl-6-methyl-1,4-dihydro-pyridine-3,5-diyl)diethanone] | ≥ 1
22 | COC(=O)C1=C(C)NC(C)=C(C(C)=O)C1c1csc2ccc(C#N)cc12 (stereo not drawn) [Example J13, Methyl 5-acetyl-4-(5-cyanobenzo[b]thiophen-3-yl)-2,6-dimethyl-1,4-dihydropyridine-3-carboxylate] | ≥ 1
23 | CC(=O)C1=C(C)NC(C)=C(C(C)=O)C1c1csc2ccc(-c3cccnc3)cc12 [Example M1, 1,1′-(2,6-dimethyl-4-(5-(pyridin-3-yl)benzo[b]thiophen-3-yl)-1,4-dihydro-pyridine-3,5-diyl)diethanone] | ≥ 1
24 | COC(=O)C1=C(C)NC(C)=C(C(C)=O)C1c1csc2ccccc12 (racemic) [Example A1, Methyl 5-acetyl-4-(benzo[b]thiophen-3-yl)-2,6-dimethyl-1,4-dihydro-pyridine-3-carboxylate] | < 0.1
25 | CC(=O)C1=C(C)NC(C2CC2)=C(C(=O)C2CC2)C1c1csc2ccccc12 (stereo not drawn) [Example B18, 1-(4-(Benzo[b]thiophen-3-yl)-5-(cyclopropanecarbonyl)-6-cyclopropyl-2-methyl-1,4-dihydropyridin-3-yl)ethan-1-one] | < 0.1
26 | COC(=O)C1=C(C)NC(C)=C(C(C)=O)C1c1csc2ccc(C(=O)O)cc12 (stereo not drawn) [Example J14, 3-(3-acetyl-5-(methoxycarbonyl)-2,6-dimethyl-1,4-dihydropyridin-4-yl)benzo[b]thiophene-5-carboxylic acid] | ≥ 1
27 | CC(=O)C1=C(C)NC(C)=C(C(C)=O)C1c1csc2ccc(C(=O)NCC3CC3)cc12 [Example H10, N-(cyclopropylmethyl)-3-(3,5-diacetyl-2,6-dimethyl-1,4-dihydropyridin-4-yl)benzo[b]thiophene-5-carboxamide] | ≥ 1
28 | COC(=O)C1=C(C)NC(C)=C(C(C)=O)C1c1csc2ccc(Cl)cc12 (stereo not drawn) [Example J3, Methyl 5-acetyl-4-(5-chlorobenzo[b]thiophen-3-yl)-2,6-dimethyl-1,4-dihydropyridine-3-carboxylate] | 0.1 to 1
29 | CC(=O)C1=C(C)NC(C)=C(C(C)=O)C1c1csc2ccc(Cl)cc12 [Example H1, 1,1′-(4-(5-chlorobenzo[b]thiophen-3-yl)-2,6-dimethyl-1,4-dihydropyridine-3,5-diyl)diethanone] | < 0.1
30 | CC(=O)C1=C(C)NC(C)=C(C(C)=O)C1c1csc2ccc(Br)cc12 [Example H2, 1,1′-(4-(5-bromobenzo[b]thiophen-3-yl)-2,6-dimethyl-1,4-dihydropyridine-3,5-diyl)diethanone] | < 0.1
31 | COC(=O)C1=C(C)NC(C)=C(C(C)=O)C1c1csc2cnccc12 (stereo not drawn) [Example J20, Methyl 5-acetyl-2,6-dimethyl-4-(thieno[2,3-c]pyridin-3-yl)-1,4-dihydropyridine-3-carboxylate] | 0.1 to 1
32 | COC(=O)C1=C(C2CC2)NC(C)=C(C(C)=O)C1c1csc2ccccc12 (stereo not drawn) [Example J1, Methyl 5-acetyl-4-(benzo[b]thiophen-3-yl)-2-cyclopropyl-6-methyl-1,4-dihydropyridine-3-carboxylate] | < 0.1
33 | CC(=O)C1=C(C)NC(C)=C(C(=O)OC2CCC(C)(C)CC2)C1c1csc2ccccc12 (stereo not drawn) [Example C27, 4,4-dimethylcyclohexyl 5-acetyl-4-(benzo[b]thiophen-3-yl)-2,6-dimethyl-1,4-dihydropyridine-3-carboxylate] | ≥ 1
